This note sets out measurements from ChEMBL document CHEMBL1201862, “PubChem BioAssay data set” (2004).

Calls of active or inactive are those of the source.

For assay [1], the target named is T1, DNA dC->dU-editing enzyme APOBEC-3A (Homo sapiens, UniProt P31941). The experiment in a line: SAR analysis of small molecule inhibitors of APOBEC3A DNA Deaminase via a fluorescence-based single-stranded DNA deaminase assay - Set 2. The format is functional. The note with it: read-out: IC50_Mean.
The target in assay [2] is T2, DNA dC->dU-editing enzyme APOBEC-3G (Homo sapiens, UniProt Q9HC16). Put plainly: SAR analysis of small molecule inhibitors of APOBEC3G DNA Deaminase via a fluorescence-based single-stranded DNA deaminase assay - Set 2. The note with it: read-out: IC50_Mean. The class given is functional.
T2 sequence (Q9HC16 whole entry): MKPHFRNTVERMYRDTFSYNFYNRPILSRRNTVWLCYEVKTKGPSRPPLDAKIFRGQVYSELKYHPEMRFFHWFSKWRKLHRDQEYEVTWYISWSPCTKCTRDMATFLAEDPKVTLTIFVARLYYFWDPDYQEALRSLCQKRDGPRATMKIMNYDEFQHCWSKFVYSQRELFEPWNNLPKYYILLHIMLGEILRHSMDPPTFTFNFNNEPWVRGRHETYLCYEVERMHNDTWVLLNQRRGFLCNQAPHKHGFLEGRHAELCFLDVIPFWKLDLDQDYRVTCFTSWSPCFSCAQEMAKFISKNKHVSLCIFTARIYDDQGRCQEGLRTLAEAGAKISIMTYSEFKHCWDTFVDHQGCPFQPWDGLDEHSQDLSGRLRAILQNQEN
Assay [3] concerns the target T2, DNA dC->dU-editing enzyme APOBEC-3G. The experiment in a line: inhibition of APOBEC3G ssDNA deamination – biochemical, fluorescence, single-stranded DNA substrate, SAR follow-up (AID 602136). The class given is functional. To be noted: read-out: IC50_Mean.
Assay [4] concerns the target T1, DNA dC->dU-editing enzyme APOBEC-3A. Put plainly: SAR analysis of small molecule inhibitors of APOBEC3A DNA Deaminase via a fluorescence-based single-stranded DNA deaminase assay. The class given is functional. To be noted: read-out: IC50_Mean.
The target in assay [5] is Melanin-concentrating hormone receptor 1 (Homo sapiens, UniProt Q99705). Put plainly: Late-stage fluorescence-based counterscreen for antagonists of the G-protein coupled receptor 7 (GPR7): cell-based dose response assay to identify antagonists of the melanin-concentrating hormone receptor 1 (MCHR1) Set 6. The format is functional. For orientation: The purpose of a counterscreen is to sort out artefacts and off-target activity.
Sequence of Melanin-concentrating hormone receptor 1 (Q99705 whole entry): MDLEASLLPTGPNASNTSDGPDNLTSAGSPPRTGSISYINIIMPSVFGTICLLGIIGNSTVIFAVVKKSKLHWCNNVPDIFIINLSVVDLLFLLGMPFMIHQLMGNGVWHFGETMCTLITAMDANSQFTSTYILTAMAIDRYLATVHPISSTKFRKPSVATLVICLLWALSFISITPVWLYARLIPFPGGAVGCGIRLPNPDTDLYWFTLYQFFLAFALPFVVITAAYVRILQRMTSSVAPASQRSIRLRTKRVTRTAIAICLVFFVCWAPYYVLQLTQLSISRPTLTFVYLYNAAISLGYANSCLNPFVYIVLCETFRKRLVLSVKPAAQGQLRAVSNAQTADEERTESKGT

Assay [6] deals with Neuropeptides B/W receptor type 1 (Homo sapiens, UniProt P48145). The experiment in a line: human NPBW1 receptor blockade, IC50 – cell-based, fluorescence, dose response, set 6, late-stage follow-up (AID 588583). The class given is functional.
Sequence of Neuropeptides B/W receptor type 1 (P48145 whole entry): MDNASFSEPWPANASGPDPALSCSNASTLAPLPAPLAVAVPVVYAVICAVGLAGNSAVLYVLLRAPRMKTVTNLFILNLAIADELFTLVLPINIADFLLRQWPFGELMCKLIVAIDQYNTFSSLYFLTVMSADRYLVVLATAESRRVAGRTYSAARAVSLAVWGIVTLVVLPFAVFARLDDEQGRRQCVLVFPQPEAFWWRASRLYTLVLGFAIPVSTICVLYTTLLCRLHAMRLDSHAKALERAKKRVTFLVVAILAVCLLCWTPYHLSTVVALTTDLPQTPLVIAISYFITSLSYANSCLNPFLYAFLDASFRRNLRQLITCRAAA
The next assay has as its system HEK293. Put plainly: EBV LMP1 TES2 canonical NF-kB signalling blockers – cell-based, HEK293, luciferase, cherry-pick, dose response (AID 588343). The class given is functional. To be noted: Homo sapiens.
A further assay deals with H9c2. Put plainly: cells. The class given is functional, cell-based. The note with it: Rattus norvegicus, H9c2, Myocardium.
Another assay concerns the target Melanocortin receptor 4 (Homo sapiens, UniProt P32245). Put plainly: inhibitors of MC4R cAMP signaling – cell-based, TR-FRET, biased antagonists, dose response (AID 602298).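 Note: antagonist potency against agonist-stimulated cAMP production.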 The class given is functional. A general note: Time-resolved FRET reads energy transfer from a long-lived donor to a nearby acceptor.
The nature of assay [7]: cAMP pathway inhibition in counterscreen cell line – TR-FRET cAMP detection, counter-screen for MC4R biased antagonist project, dose response (AID 602305).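 Note: U2OS cells stimulated with forskolin near its EC80 as the cAMP inducer; potency is for inhibition of forskolin-stimulated cAMP signaling.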 The format is functional, cell-based.
Assay [8] deals with T3, ATP-dependent translocase ABCB1 (Homo sapiens, UniProt P08183). The experiment in a line: inhibition of BCRP-mediated JC-1 efflux – Ig-MXP3 cells, flow cytometry, set 2, dose response (AID 504566).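 Note: flow cytometry median green fluorescence of retained JC-1 dye; potency of efflux pump inhibition measured as rising substrate retention.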 The class given is functional. The note with it: read-out: EC50_MICROM_. In general terms: In flow cytometry, cells or beads pass a laser one at a time.
T3 sequence (P08183 whole entry): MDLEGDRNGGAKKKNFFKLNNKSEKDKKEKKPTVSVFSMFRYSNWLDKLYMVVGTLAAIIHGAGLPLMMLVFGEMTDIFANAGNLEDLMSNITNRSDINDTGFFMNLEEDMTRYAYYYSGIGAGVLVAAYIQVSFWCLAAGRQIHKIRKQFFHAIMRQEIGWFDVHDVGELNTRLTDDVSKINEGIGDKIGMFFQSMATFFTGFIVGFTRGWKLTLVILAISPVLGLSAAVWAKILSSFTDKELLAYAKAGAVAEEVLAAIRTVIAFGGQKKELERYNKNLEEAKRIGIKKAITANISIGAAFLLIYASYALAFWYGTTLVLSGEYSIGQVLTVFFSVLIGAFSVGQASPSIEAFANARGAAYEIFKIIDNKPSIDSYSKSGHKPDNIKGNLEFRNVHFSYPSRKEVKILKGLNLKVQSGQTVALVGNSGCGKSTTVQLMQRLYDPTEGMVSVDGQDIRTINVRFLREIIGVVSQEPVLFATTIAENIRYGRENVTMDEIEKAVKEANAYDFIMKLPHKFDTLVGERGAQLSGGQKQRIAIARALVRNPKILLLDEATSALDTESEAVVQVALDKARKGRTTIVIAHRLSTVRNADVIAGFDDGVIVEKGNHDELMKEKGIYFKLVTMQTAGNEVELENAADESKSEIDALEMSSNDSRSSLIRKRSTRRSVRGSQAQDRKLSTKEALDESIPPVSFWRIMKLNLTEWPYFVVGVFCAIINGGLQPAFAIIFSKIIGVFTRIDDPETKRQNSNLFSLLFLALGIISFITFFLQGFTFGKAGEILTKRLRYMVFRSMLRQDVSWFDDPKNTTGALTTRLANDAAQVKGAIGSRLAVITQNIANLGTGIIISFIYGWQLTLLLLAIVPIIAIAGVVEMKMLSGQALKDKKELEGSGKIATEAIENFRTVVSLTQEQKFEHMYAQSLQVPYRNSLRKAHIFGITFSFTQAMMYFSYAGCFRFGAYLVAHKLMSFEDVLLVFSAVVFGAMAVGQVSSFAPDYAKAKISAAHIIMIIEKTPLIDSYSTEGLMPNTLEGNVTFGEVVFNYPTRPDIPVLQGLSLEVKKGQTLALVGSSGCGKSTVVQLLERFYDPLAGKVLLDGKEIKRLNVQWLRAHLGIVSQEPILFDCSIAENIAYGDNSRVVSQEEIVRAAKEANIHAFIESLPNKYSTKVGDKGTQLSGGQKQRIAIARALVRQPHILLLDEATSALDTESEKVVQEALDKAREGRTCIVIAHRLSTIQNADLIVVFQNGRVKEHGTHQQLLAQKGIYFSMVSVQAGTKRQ
Assay [9] concerns the target T3, ATP-dependent translocase ABCB1. The experiment in a line: P-gp JC-1 efflux blockade concentration-response – Jurkat-DNR cells, flow cytometry, set 2, dose response (AID 504569).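 Note: potency of pump inhibitors that raise cellular JC-1 green fluorescence up to the nicardipine level.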 The format is functional. The note with it: read-out: EC50_MICROM_.
For a further assay, the target named is Paired box protein Pax-8 (Homo sapiens, UniProt Q06710). The experiment in a line: PAX8 transcriptional activity inhibition in RMG-I – RMG-I cells, luciferase, cherry-pick, dose response (AID 687027).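 Note: luciferase reporter driven by Pax8 target thyroperoxidase promoter measured by SteadyGlo luminescence.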 The class given is functional, cell-based.
Sequence of Paired box protein Pax-8 (Q06710 whole entry): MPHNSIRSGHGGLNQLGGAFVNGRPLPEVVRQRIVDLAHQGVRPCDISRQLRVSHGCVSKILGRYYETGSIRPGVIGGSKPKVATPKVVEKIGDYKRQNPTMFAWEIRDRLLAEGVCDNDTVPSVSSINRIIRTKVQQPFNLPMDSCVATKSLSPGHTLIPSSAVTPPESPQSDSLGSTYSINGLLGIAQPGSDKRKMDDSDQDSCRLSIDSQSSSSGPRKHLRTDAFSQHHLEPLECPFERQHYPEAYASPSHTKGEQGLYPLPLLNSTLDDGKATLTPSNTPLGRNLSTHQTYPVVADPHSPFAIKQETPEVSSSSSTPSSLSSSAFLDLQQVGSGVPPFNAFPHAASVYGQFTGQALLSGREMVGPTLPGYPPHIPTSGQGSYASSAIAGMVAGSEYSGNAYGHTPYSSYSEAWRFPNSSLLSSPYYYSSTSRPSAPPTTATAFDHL
The nature of assay [10]: general cell-killing toxicity readout – plate reader, dry powder samples, cytotoxicity control for PAX8 inhibitor project, dose response (AID 743021). The format is functional, cell-based.

T1 sequence (P31941 whole entry): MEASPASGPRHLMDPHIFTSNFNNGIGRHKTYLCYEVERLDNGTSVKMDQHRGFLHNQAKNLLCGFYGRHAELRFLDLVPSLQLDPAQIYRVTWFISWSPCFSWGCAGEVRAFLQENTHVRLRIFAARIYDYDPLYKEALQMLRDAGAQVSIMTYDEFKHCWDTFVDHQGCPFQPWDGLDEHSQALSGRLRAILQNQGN
Sequence of Melanocortin receptor 4 (P32245 whole entry): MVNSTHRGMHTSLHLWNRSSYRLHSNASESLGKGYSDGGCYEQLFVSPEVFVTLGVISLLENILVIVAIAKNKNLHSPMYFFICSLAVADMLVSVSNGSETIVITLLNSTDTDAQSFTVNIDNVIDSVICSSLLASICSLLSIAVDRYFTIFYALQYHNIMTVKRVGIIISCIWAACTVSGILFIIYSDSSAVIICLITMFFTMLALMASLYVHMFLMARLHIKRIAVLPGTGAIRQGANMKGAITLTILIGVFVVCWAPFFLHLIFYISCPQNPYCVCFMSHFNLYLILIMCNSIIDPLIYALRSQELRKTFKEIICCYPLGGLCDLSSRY

Consider `O=C(NCc1ccc2c(c1)OCO2)c1nn2cccnc2c1Cl`, for which the IC50 was > 99 µM (inactive) in assay [1], 49.9 µM (inactive) in [2], > 99 µM (inactive) in assay [3] and > 99 µM (inactive) in assay [4].
For `N#CC(c1ccccc1F)c1c(Cl)cnn(Cc2cccc3ccccc23)c1=O` (centres undefined), the IC50 in assay [5] and in assay [6] was 0.937 µM (active) each time.
Broadly, the AC50 is the midpoint of the concentration-response curve, whichever way the signal moves. Consider `C#Cc1cc(N2CCN(C(=O)c3ccoc3)CC2)n2nc(-c3cccc(Cl)c3)cc2n1`, for which the concentration at half-maximal activity (AC50) in the assay with HEK293 is 13.4 µM (active); on Paired box protein Pax-8 it was 3.79 µM (active); in [10] it was 4.43 µM (active). The IC50 is > 79 µM (inactive) in the assay on H9c2, > 64.6 µM (inactive) at Melanocortin receptor 4 and > 64.6 µM (inactive) in [7]. Moreover, the EC50 was 1.98 µM (active) in [8] and 7.34 µM (active) in assay [9].
